Reference: PMC9026853, “Design, Physicochemical Characterization, and In Vitro Permeation of Innovative Resatorvid Topical Formulations for Targeted Skin Drug Delivery” (Pharmaceutics, 2022)
Several values for one entry are separate records, joined by “and”; a condition that tells them apart may be missing. Identical values can stand only once.

What was measured:
[1] = design: method as in PMID 29437671; settings: standardized Franz cell system; cited from earlier work
[2] = tested on: primary normal human epidermal keratinocytes (NHEKs); assay: In vitro cell dose-response (resazurin viability) in 2D culture, NHEK; assay type: cell-based; settings: 0.01-1000 µM raw resatorvid, 72 h exposure as printed in results
Method: (§1) The effects of raw resatorvid on the viability of human representative keratinocyte cell lines exposed to concentrations at 1000 μM, 100 μM, 10 μM, 1 µM, 0.1 µM, and 0.01 µM were tested. HaCaT cells (a human transformed keratinocyte from a histologically normal skin cell line) and primary NHEKs (normal human epidermal keratinocyte cells) were used as models of the human epidermis, which generates keratinocytes in the stratum basale and then differentiates into the final barrier layer of the skin, the stratum corneum. The HaCaT cells were grown in Dulbecco’s modified Eagle’s medium (DMEM), Optimized 1×, 10% (v/v) FBS, and Pen-Strep (100 units/mL penicillin, 100 µg/mL) in a humidified incubator at 37 °C and 5% CO2. The NHEK cells were grown in an NHEK growth medium provided by MatTek (Ashland, MA, USA) in a humidified incubator at 37 °C and 5% CO2.
(§2) After confluence, the HaCaT and NHEK cells were seeded in a black 96-well plate at a concentration of 5000 cells in 100 µL of media/well, then incubated for 48 h to allow attachment to the surface of the plates. After 48 h, the cells were then exposed to the different concentrations of resatorvid previously mentioned. The drug solutions were prepared by dissolving raw resatorvid powder in 5% (v/v) DMSO and adequate growth medium to make a solution at 1×. A volume of 100 µL of drug solution was added to each well. […] The fluorescence intensity of resorufin was detected at 544 nm (excitation) and 590 nm (emission) using the Molecular Devices® SpectraMax® M3 Multi-Mode Microplate Reader (Sunnyvale, CA, USA). The relative viability of the cells was calculated as followed by Equation (1):(1) Relative Viability %=Sample flourescence intensity/Control flourescece intensity×100%

[3] = as above; assay type: cell-based, human; settings: human; all concentrations (0.01-1000 µM); read-out: viability of NHEK cells
Method: as §1, §2

[4] = method and reference not given; cited from earlier work
[5] = In vitro oil-water partitioning coefficient (Log-P), 1-octanol/PBS, HPLC; assay type: physicochemical; settings: for Experimental (Log-P): n = 3, mean ± SD; for partition coefficient (Log-P), range over pH: pH 6.5, 7.1, 8.8
Method: The HPLC consisted of a Shimadzu LC-2010A HT liquid chromatograph (Torrance, CA, USA), coupled with a UV–Vis dual wavelength detector. The analysis was performed by a reverse-phase HPLC assay, using a Luna C18, 5 μm column (250 mm × 2 mm) (Phenomenex, Torrance, CA, USA), maintained at 25 °C ± 2 °C. Ultraviolet detection was done at 254 nm. The mobile phase conditions were 50:50 (v/v) acetonitrile: trifluoroacetic acid (0.1% v/v) at a flow rate of 0.3 mL/min. The injection volume was 10 µL. The retention time for resatorvid was ~15.9 min. Quantification was determined using peak area and calculated from a five-point standard curve (0.0625 mg/mL to 1 mg/mL, R^2 = 0.9971). Standards were prepared by volumetric dilution in acetonitrile and stored at 4 °C, protected from light. The modifications made to the method were using a column length of 250 mm × 2 mm instead of 150 mm × 2.1 mm and a mobile phase of 50:50 (v/v) acetonitrile: trifluoroacetic acid (0.1% v/v) instead of 40:60 (v/v) acetonitrile: trifluoroacetic acid (0.1% v/v) as previously reported.
Resatorvid raw powder was weighed out (0.003 g) and placed in 2 dram amber-colored glass vials containing equal volumes (1.5 mL) of 1-octanol and PBS (1×, pH = 7.4) to make a 1 mg/mL solution. Various solutions were made, and the pH was adjusted and maintained at pH values of 6.5, 7.1, 8.8. Adjustments to the pH were made using 0.1 M hydrochloric acid (HCl) solution and 0.1 M sodium hydroxide (NaOH) solution. […] The vials were rotated using a Barnstead/Thermolyne Labquake shaker (Dubuque, IA, USA) for 24 h and left undisturbed in a vertical position for an additional 24 h for phase separation between the aqueous and non-aqueous layers. Then, 200 μL of the organic and aqueous layers were sampled very carefully without disturbing the separation of phases and analyzed via the HPLC method previously mentioned.

[6] = Particle sizing by SEM image analysis; assay type: physicochemical
Source text: The particle size and surface morphology of raw resatorvid were obtained using scanning electron microscopy (SEM) (FEI, Brno, Czech Republic). The samples were sprinkled onto the double-sided adhesive carbon tabs (Ted Patella, Inc. Redding, CA, USA), which were adhered to aluminum stubs and coated with a 7 nm thin film of gold palladium alloy, using an Anatech Hummer 6.2 (Union City, CA, USA) sputtering system at 20 µA for 90 s under an argon plasma. The electron beam with an accelerating voltage of 30 kV was used at a working distance of approximately 9–12 mm. The SEM images were collected at various magnifications.
Using SEM micrographs, the mean size, standard deviation, and size range of the particles were determined digitally using SigmaScan^TM Pro 5.0.0 (Systat, Inc., San Jose, CA, USA). Representative micrographs of raw resatorvid at 400–5000× magnification were analyzed by measuring the diameter of at least 60 particles per sampling.

HaCaT cells = assay: In vitro cell dose-response (resazurin viability) in 2D culture, HaCaT; assay type: cell-based, human; settings: for toxicity to HaCaT cells: 0.01-1000 µM raw resatorvid, 72 h exposure as printed in results
Method: as §1, §2

[7] = as above; assay type: cell-based, human; settings: human, HaCaT cells (transformed keratinocytes), 2D culture; concentrations at 0.01 µM and 0.1 µM
Method: as §1, §2

[8] = Residual water content by Karl Fisher coulometric titration; assay type: physicochemical; settings: KFT, n = 4, mean ± SD, Table S2
Method: The residual water content of raw resatorvid powder was quantified by coulometric KFT using a TitroLine 750 trace titrator (SI Analytics, Weilheim, Germany). In brief, 1 mL of 0.1% (w/v) of resatorvid in anhydrous methanol was added to the titration cell containing Hydranal® Coulomat AD reagent.

SKH-1 mice = tested on: SKH-1 mice; design: method as in PMID 29437671; settings: topical, cited from earlier work

Experimental (Log-P) ([5]; At 35 °C, pH = 6.5, 1-octanol/PBS): 1.65 ± 0.029 | Experimental (Log-P) ([5]; At 35 °C, pH = 7.1): 1.68 and 1.68 ± 0.013 | Experimental (Log-P) ([5]; At 35 °C, pH = 8.8): 0.94 ± 0.023 | Experimental (Log-P) ([5]; At Room temperature/ambient temperature, pH = 6.5): 1.58 ± 0.019 | Experimental (Log-P) ([5]; At Room temperature/ambient temperature, pH = 7.1): 1.54 ± 0.149 | Experimental (Log-P) ([5]; At Room temperature/ambient temperature, pH = 8.8): 0.88 ± 0.060 | partition coefficient (Log-P), range over pH ([5]; at 35 °C): 0.94–1.68 | partition coefficient (Log-P), range over pH ([5]; at room/ambient temperature): 0.88–1.58 | average geometric (linear) size of the raw particles [6]: 5.84 µm | Residual Water content [8]: 0.0173 ± 0.0156 %w/w
Compound: CCOC(=O)C1=CCCC[C@H]1S(=O)(=O)Nc1ccc(F)cc1Cl [resatorvid, ethyl (6R)-6-[N-(2-Chloro-4-fluorophenyl)sulfamoyl]cyclohex-1-ene-1-carboxylate]
amount of resatorvid in the lower epidermis (tape strips 4–12), average over time course [1]: 5 µg/cm^2 | time remaining in the skin [1]: at least 8 hr | toxicity to NHEK cells [2]: negligible toxicity | toxicity to NHEK cells ([2]; listed as Resatorvid): did not show any significant toxicity | viability at 48 h [3]: ~100% | experimentally determined pKa reported [4]: 8.0–8.1 | toxicity to HaCaT cells (HaCaT cells): negligible toxicity | toxicity to HaCaT cells (HaCaT cells; listed as Resatorvid): did not show any significant toxicity | effect on HaCaT cells at higher concentrations (HaCaT cells; concentration increased from 1 µM to 1000 µM): cell proliferation was observed | viability at 48 h [7]: ~100% | modulation of UV-induced biomarkers (SKH-1 mice; acetone solution of TAK-242 (13 mM), SKH-1 mice): successfully modulated UV-induced biomarkers | UV-induced AP-1 activation (SKH-1 mice; mice): reduces UV-induced AP-1 activation | photocarcinogenesis (SKH-1 mice; mice): inhibits photocarcinogenesis
